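1) Cells in 96-well plates. 2) Compound, 48 h, 5 concentrations. 3) Linear interpolation between surrounding doses. 4) Unreached endpoint = highest concentration. GI50: concentration for 50% inhibition of growth. TGI: concentration producing complete growth inhibition.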
What was measured:
Experiment in all cases: growth of human tumour cells (NCI), 48 h
NCI-H23 lung = tested on: NCI-H23 lung
COLO 205 colon = tested on: COLO 205 colon
HT29 colon = tested on: HT29 colon
HS 578T breast = tested on: HS 578T breast
SNB-75 CNS = tested on: SNB-75 CNS
DU-145 prostate = tested on: DU-145 prostate
UO-31 renal = tested on: UO-31 renal
SW-620 colon = tested on: SW-620 colon
OVCAR-4 ovarian = tested on: OVCAR-4 ovarian
SR leukemia = tested on: SR leukemia

| SMILES | GI50 (NCI-H23 lung) [µM] | TGI (NCI-H23 lung) [µM] | GI50 (COLO 205 colon) [µM] | TGI (COLO 205 colon) [µM] | GI50 (HT29 colon) [µM] | TGI (HT29 colon) [µM] | GI50 (HS 578T breast) [µM] | TGI (HS 578T breast) [µM] | GI50 (SNB-75 CNS) [µM] | TGI (SNB-75 CNS) [µM] | GI50 (DU-145 prostate) [µM] | TGI (DU-145 prostate) [µM] | GI50 (UO-31 renal) [µM] | TGI (UO-31 renal) [µM] | GI50 (SW-620 colon) [µM] | TGI (SW-620 colon) [µM] | TGI (OVCAR-4 ovarian) [µM] | TGI (SR leukemia) [µM] | GI50 (OVCAR-4 ovarian) [µM] | GI50 (SR leukemia) [µM] |
| --- | --- | --- | --- | --- | --- | --- | --- | --- | --- | --- | --- | --- | --- | --- | --- | --- | --- | --- | --- | --- |
| CC1(C)C2CCC13C(=O)C1OC3(C2)C2C(=O)c3c(O)cccc3C(=O)C12 (centres undefined) | 2.24 | 6.55 | 4.09 | 16.1 | 3.58 | 9.4 | 0.988 | 2.86 | 7.28 | 22.3 | 0.196 | 0.386 | 4.5 | 18.5 | – | – | – | – | – | – |
| CC(=O)[CH-]C(=O)c1ccccc1.CC(=O)[CH-]C(=O)c1ccccc1.[CH2-]CCC.[CH2-]CCC.[Sn+4] | 0.476 | 1.77 | 0.984 | 2.47 | 1.73 | 3.39 | – | – | 0.352 | 1.18 | – | – | 1.37 | 2.66 | 0.283 | 0.964 | – | – | – | – |
| COc1ccc(CC2=NCCc3cc(OC)c(OC)cc32)cc1Br | – | > 100 | – | 37.4 | – | > 100 | – | – | – | – | – | – | – | > 100 | – | > 100 | > 100 | 91.1 | – | – |
| COC(=O)c1cc2c3c(ccc2[nH]1)N(C(=O)c1cc2c4c(ccc2[nH]1)N(C(=O)c1cc2c5c(ccc2[nH]1)N(C(N)=O)CC5)CC4)CC3 | – | > 100 | – | > 36 | – | > 100 | – | – | – | – | – | – | – | 8.47 | – | > 100 | > 100 | > 100 | – | – |
| C/C(=N/NC(=O)CC(=O)N(C(=O)c1ccccc1Cl)c1ccc(C)cc1)c1cc2ccccc2oc1=O | – | > 100 | – | > 100 | – | > 100 | – | – | – | > 100 | – | – | – | > 100 | – | > 100 | > 100 | > 100 | – | – |
| COc1ccc(C2ONC3=NCCN32)cc1 (centres undefined) | > 100 | > 100 | 45.9 | > 100 | 68.8 | > 100 | – | – | > 100 | > 100 | 70.3 | > 100 | – | – | 46.8 | > 100 | > 100 | – | > 100 | – |
| NS(=O)(=O)c1ccc(NC(=O)c2cccn3c(=O)c4ccccc4nc23)cc1 | – | > 100 | – | > 100 | – | > 100 | – | – | – | > 100 | – | – | – | > 100 | – | > 100 | > 100 | > 100 | – | – |
| C[N+](C)=c1nc(N2CCOCC2)ss1 | – | > 100 | – | – | – | > 100 | – | – | – | – | – | – | – | > 100 | – | > 100 | – | > 100 | – | – |
| O=C(/C=C/c1cn(-c2ccccc2)nc1-c1ccc([N+](=O)[O-])cc1)c1ccc(Cl)cc1 | 3.67 | > 100 | – | – | – | – | 1.92 | 5.64 | 1.65 | 4.84 | – | – | – | – | – | – | – | > 100 | – | 2.76 |
| CC(=O)OCCC(O[Si](c1ccccc1)(c1ccccc1)C(C)(C)C)C(C)(C)O (centres undefined) | – | 68.7 | – | 30.3 | – | 66.9 | – | – | – | > 100 | – | – | – | 68.7 | – | > 100 | > 100 | – | – | – |
| O=C(O)[C@@H]1CCCC[C@@H]1C(=O)N(C1CCCCC1)C1CCCCC1 | – | > 100 | – | > 100 | – | > 100 | – | – | – | > 100 | – | – | – | > 100 | – | > 100 | > 100 | > 100 | – | – |
| CCN(CC)CCOc1ccc(/C=C2\CC3C4CC=C5C[C@@H](OC(C)=O)CC[C@]5(C)C4CC[C@]3(C)C2=O)cc1OC (some centres undefined) | 12.4 | 49.5 | 15.9 | > 100 | 4.07 | > 100 | 7.77 | 25.7 | 20.5 | 58.1 | 3.87 | 16.6 | 11.1 | 23.1 | – | – | > 100 | – | 20.9 | – |
| COc1ccccc1/C=C\C(=O)c1ccccc1 | 13.5 | 29.4 | 11.9 | 24.3 | 3.9 | 17.3 | – | – | 13.6 | 27 | 8.38 | 20.5 | 4.58 | 17.3 | – | – | 17.1 | 18 | 4.31 | 2.77 |
| O=[N+]([O-])C1C2C=CC(C2)[C@H]1c1ccc(Cl)cc1Cl (some centres undefined) | – | > 100 | – | – | – | 57.4 | – | – | – | > 100 | – | – | – | 67.2 | – | > 100 | – | > 100 | – | – |
| CC12OC(C(=O)C13CCC3)C1C(=O)c3ccccc3C(=O)C12 (centres undefined) | 38 | > 100 | > 100 | > 100 | > 100 | > 100 | > 100 | > 100 | > 100 | > 100 | – | – | > 100 | > 100 | – | – | – | – | – | – |
| CC(c1ccccc1)N1CC(C)(c2ccccc2)N(O)C(c2ccccc2)C1C (centres undefined) | – | 56.8 | – | 23.7 | – | > 100 | – | – | – | 55.2 | – | – | – | 10.2 | – | 68.1 | – | – | – | – |
| COc1cc2cccc(N=Cc3c(Br)ccc(OC)c3OC(C)C)c2cc1OC | – | > 100 | – | > 100 | – | 93.7 | – | – | – | 89.3 | – | – | – | > 100 | – | > 100 | > 100 | – | – | – |
| c1ccc(NC[Si]23OCCN(CCO2)CCO3)cc1 | – | > 100 | – | > 100 | – | > 100 | – | – | – | > 100 | – | – | – | > 100 | – | > 100 | – | > 100 | – | – |
| COc1ccc(C2NCCc3c2[nH]c2ccccc32)cc1 (centres undefined) | – | > 100 | – | > 100 | – | > 100 | – | – | – | > 100 | – | – | – | > 100 | – | > 100 | – | 91.5 | – | – |
| Fc1c[c-]c(-c2ccccn2)c(F)c1.[CH3-].[Pt+2].c1ccc(P(C[PH+](c2ccccc2)c2ccccc2)c2ccccc2)cc1 | 0.563 | 1.99 | 0.485 | 2.07 | 0.5 | 3.73 | 0.864 | 2.9 | 0.967 | 4.14 | 1.06 | 6.47 | 0.731 | 1.41 | 0.52 | 1.49 | 3.71 | – | 0.61 | – |
| C=CC1=CC(C)C[C@]1(O)C(=O)OC (some centres undefined) | > 100 | – | > 100 | – | > 100 | – | – | – | > 100 | – | – | – | > 100 | – | < 0.01 | – | – | > 100 | > 100 | – |
| COc1ccc2[nH]c3c(=O)[nH]ncc3c2c1 | – | > 100 | – | > 100 | – | > 100 | – | – | – | 57.4 | – | – | – | > 100 | – | > 100 | > 100 | > 100 | – | – |
